In patent publication US12590094B2, “Compounds for the treatment of neurodegenerative and metabolic disorders” (UNIVERSITY OF FLORIDA RESEARCH FOUNDATION, INCORPORATED, priority 2019, dated 2026):
pEC50: −log10 of the molar value. Read-outs that look alike come from different tables or passages of the source.

Key:
Experiment in all cases: cells
[1] = tested on: PK1 neuroblastoma cells treated with TPrP; assay type: cell-based; details: for pEC50: Neuroblastoma cell, read-out: Viability EC50
[2] = tested on: PK1 neuroblastoma cells treated with TPrP; assay type: cell-based; details: Neuroblastoma cell, read-out: NAD EC50
[3] = tested on: Cells exposed to TPrP; details: read-out: Viability EC50

SMILES | pEC50 [3] | other results
COc1cc(OC)c2cc(-c3ccncc3)cnc2c1 [DMPQ] | – | pEC50 [1]: 6.30; pEC50 [2]: 5.26
COc1ccc(-c2cc(C(C)(C)C)n3ncc(C(=O)NCCCn4ccnc4)c3n2)cc1 [SR0-28464] | 8.92 | –
COc1ccc(-c2cc(C(F)(F)F)n3ncc(C(=O)NCCCn4ccnc4C(F)(F)F)c3n2)cc1 [SR0-28466] | 7.70 | –
COc1ccc(-c2cc(C(F)(F)F)n3ncc(C(=O)NCCCn4ccnc4F)c3n2)cc1 [SR0-28467] | 7.80 | –
CCc1nccn1CCCNC(=O)c1cnn2c(C(F)(F)F)cc(-c3ccc(OC)cc3)nc12 [SR0-29244] | 7.60 | –
CCOc1ccc(-c2cc(C)n3ncc(C(=O)NCCCn4ccnc4C)c3n2)cc1 [SR0-29245] | 8.92 | –
Cc1nccn1CCCNC(=O)c1cnn2c(C)cc(-c3ccc(OC(F)(F)F)cc3)nc12 [SR0-29246] | 8.70 | –
Cc1nccn1CCCNC(=O)c1cnn2c(C)cc(-c3ccc4c(c3)OCO4)nc12 [SR0-29247] | 8.66 | –
COc1cc(-c2cc(C)n3ncc(C(=O)NCCCn4ccnc4C)c3n2)cc(OC)c1OC [SR0-29248] | 8.40 | –
COc1ccc(-c2cc(N3CCCC3)n3ncc(C(=O)NCCCn4ccnc4C)c3n2)cc1 [SR0-29249] | 8.66 | –
COc1ccc(-c2cc(C(F)(F)F)n3nc(C)c(C(=O)NCCCn4ccnc4C)c3n2)cc1 [SR0-29250] | 8.44 | –
Cc1nccn1CCCNC(=O)c1cnn2c(C(C)(C)C)cc(-c3ccc4c(c3)OCO4)nc12 [SR0-31104] | 8.00 | –
Cc1c(-c2ccc3c(c2)OCO3)nc2c(C(=O)NCCCn3ccnc3C)cnn2c1C [SR0-31106] | 7.52 | –
Cc1cc(-c2ccc3c(c2)OCO3)nc2c(C(=O)NCCCn3ccnc3S(C)(=O)=O)cnn12 [SR0-31110] | < 7.30 | –
NS(=O)(=O)c1ccc(Nc2nc(-c3cc4ccccc4oc3=O)cs2)cc1 [SR1-22833] | – | pEC50 [1]: 7.24; pEC50 [2]: 6.61
CC1=C[C@@H]2c3cccc4[nH]cc(c34)C[C@H]2N(C)C1 [SR1-75354, agroclavine] | – | pEC50 [1]: 5.80; pEC50 [2]: 5.70
CNC(=O)c1cc2c(cn1)[nH]c1ccccc12 [SR1-75632, N-methyl-9H-pyrido[3,4-b]indole-3-carboxamide] | – | pEC50 [1]: 5.49; pEC50 [2]: < 4.82
Cc1ccc(-c2nnc3c4ccccc4c(C)nn23)cc1S(=O)(=O)NCCO [SR1-87813] | – | pEC50 [1]: 6.81; pEC50 [2]: 6.13
COc1ccc(-c2nnc3c4ccccc4c(C)nn23)cc1S(=O)(=O)NC(C)(C)CO [SR1-87819] | – | pEC50 [1]: 7.01; pEC50 [2]: 6.17
CNS(=O)(=O)c1cc(-c2nnc3c4ccccc4c(C)nn23)ccc1C [SR1-115255] | – | pEC50 [1]: 6.71; pEC50 [2]: 5.92
Cc1ccc(-c2nnc3c4ccccc4c(C)nn23)cc1S(=O)(=O)N1CCN(C)CC1 [SR1-115275] | – | pEC50 [1]: 6.08; pEC50 [2]: 5.59

SMILES | pEC50 [3] | other results
c1ccc2c(c1)OCC(CNc1nnc(Cc3ccncc3)c3ccccc13)O2 (stereo not drawn) [SR1-134003] | – | pEC50 [1]: 6.70; pEC50 [2]: 5.92
COc1ccc(-c2csc(Nc3ccc(S(N)(=O)=O)cc3)n2)cc1 [SR1-223735] | – | pEC50 [1]: 7.06; pEC50 [2]: 6.44
NS(=O)(=O)c1ccc(Nc2nc(-c3ccc4ccccc4c3)cs2)cc1 [SR1-281377] | – | pEC50 [1]: 6.72; pEC50 [2]: 5.92
CC(=O)Nc1cccc(-c2csc(Nc3ccc(S(N)(=O)=O)cc3)n2)c1 [SR1-364643] | – | pEC50 [1]: 7.28; pEC50 [2]: 6.58
COc1ccc(-c2cc(C)n3ncc(C(=O)NCCCn4ccnc4)c3n2)cc1 [SR3-5170] | 9.00 | –
COCc1cc(-c2ccc(OC)cc2)nc2c(C(=O)NCCCn3ccnc3)cnn12 [SR3-5250] | 9.30 | –
COc1ccc(-c2cc(C(F)(F)F)n3ncc(C(=O)NCCn4ccnc4)c3n2)cc1 [SR3-5290] | < 7.49 | –
CCc1cc(-c2ccc(OC)cc2)nc2c(C(=O)NCCCn3ccnc3)cnn12 [SR3-5310] | 9.22 | –
COc1ccc(-c2cc(C(C)C)n3ncc(C(=O)NCCCn4ccnc4)c3n2)cc1 [SR3-5311] | 9.40 | –
COc1ccc(-c2cc(C(F)(F)F)n3ncc(C(=O)NCCCCn4ccnc4)c3n2)cc1 [SR3-5312] | 8.22 | –
COc1ccc(-c2cc(C(F)(F)F)n3ncc(C(=O)NCCCn4cnc5ccccc54)c3n2)cc1 [SR3-5313] | < 7.80 | –
COc1ccc(-c2cc(C(F)(F)F)n3ncc(C(=O)N(C)CCCn4ccnc4)c3n2)cc1 [SR3-5314] | < 7.80 | –
CCOC(=O)c1c(CC)ncc2[nH]c3cc(OC)c(OC)cc3c12 [SR26084] | ~5.00 | –
CCc1c(C(=O)O)ncc2[nH]c3cc(OC)c(OC)cc3c12 [SR26266] | < 5.40 | –
CN(C)S(=O)(=O)c1ccc(Nc2nc(-c3ccncc3)cs2)cc1 [SR-27744] | 7.22 | –
Cc1nc(C)c(-c2csc(Nc3ccc(S(=O)(=O)N(C)C)cc3)n2)s1 [SR-27764] | 7.15 | –
CCNS(=O)(=O)c1ccc(Nc2nc(-c3ccncc3)cs2)cc1 [SR-27784] | 7.22 | –
CCNS(=O)(=O)c1ccc(Nc2nc(-c3sc(C)nc3C)cs2)cc1 [SR-27785] | 6.30 | –
CCCNS(=O)(=O)c1ccc(Nc2nc(-c3ccncc3)cs2)cc1 [SR-27804] | 6.77 | –
CCCNS(=O)(=O)c1ccc(Nc2nc(-c3sc(C)nc3C)cs2)cc1 [SR-27805] | < 6.30 | –
CNS(=O)(=O)c1ccc(Nc2nc(-c3ccncc3)cs2)cc1 [SR-27806] | 7.22 | –

SMILES | pEC50 [3] | other results
CCCCNS(=O)(=O)c1ccc(Nc2nc(-c3ccncc3)cs2)cc1 [SR-27808] | 6.77 | –
CCCCNS(=O)(=O)c1ccc(Nc2nc(-c3sc(C)nc3C)cs2)cc1 [SR-27809] | < 6.30 | –
c1ccc2c(c1)CCC2Nc1nnc(Cc2ccncc2)c2ccccc12 (stereo not drawn) [SR-27884] | 6.30 | –
c1ccc2c(c1)CC(Nc1nnc(Cc3ccncc3)c3ccccc13)C2 [SR-27885] | 6.70 | –
COc1ccc(CNc2nnc(Cc3ccncc3)c3ccccc23)cc1OC [SR-27886] | 6.85 | –
c1ccc2[nH]c(CNc3nnc(Cc4ccncc4)c4ccccc34)nc2c1 [SR-27887] | 6.70 | –
c1ccc2oc(CNc3nnc(Cc4ccncc4)c4ccccc34)nc2c1 [SR-27888] | 7.35 | –
c1ccc2c(c1)CC(Nc1nnc(Cc3ccncc3)c3ccccc13)CO2 (stereo not drawn) [SR-27889] | 6.70 | –
c1ccc2c(c1)CC(CNc1nnc(Cc3ccncc3)c3ccccc13)CO2 (stereo not drawn) [SR-27890] | 6.85 | –
c1ccc2c(c1)OCCC2Nc1nnc(Cc2ccncc2)c2ccccc12 (stereo not drawn) [SR-27891] | 6.70 | –
c1ccc(OCCNc2nnc(Cc3ccncc3)c3ccccc23)cc1 [SR-27892] | 6.30 | –
O=S(=O)(c1ccc(Nc2nc(-c3ccncc3)cs2)cc1)N1CCCC1 [SR-28544] | 6.46 | –
Cc1nc(C)c(-c2csc(Nc3ccc(S(=O)(=O)N4CCCC4)cc3)n2)s1 [SR-28545] | < 6.30 | –
O=S(=O)(c1ccc(Nc2nc(-c3ccncc3)cs2)cc1)N1CCCCC1 [SR-28546] | 6.40 | –
Cc1nc(C)c(-c2csc(Nc3ccc(S(=O)(=O)N4CCCCC4)cc3)n2)s1 [SR-28547] | < 6.30 | –
O=S(=O)(c1ccc(Nc2nc(-c3ccncc3)cs2)cc1)N1CCOCC1 [SR-28548] | 6.77 | –
Cc1nc(C)c(-c2csc(Nc3ccc(S(=O)(=O)N4CCOCC4)cc3)n2)s1 [SR-28549] | 6.40 | –
NS(=O)(=O)c1ccc(Nc2nc(-c3ccncc3)c(CO)s2)cc1 [SR-28550] | 7.22 | –
Cc1nc(C)c(-c2nc(Nc3ccc(S(N)(=O)=O)cc3)sc2CO)s1 [SR-28551] | 6.52 | –
Cc1nc(N)sc1-c1csc(Nc2ccc(S(N)(=O)=O)cc2)n1 [SR-28552] | 6.80 | –
O=S(=O)(Nc1ccccc1)c1ccc(Nc2nc(-c3ccncc3)cs2)cc1 [SR-29444] | < 6.30 | –

SMILES | pEC50 [3] | other results
Cc1nc(C)c(-c2csc(Nc3ccc(S(=O)(=O)Nc4ccccc4)cc3)n2)s1 [SR-29445] | < 6.30 | –
Cc1ccc(NS(=O)(=O)c2ccc(Nc3nc(-c4ccncc4)cs3)cc2)cc1 [SR-29446] | < 6.30 | –
Cc1ccc(NS(=O)(=O)c2ccc(Nc3nc(-c4sc(C)nc4C)cs3)cc2)cc1 [SR-29447] | < 6.30 | –
O=S(=O)(Nc1ccc(F)cc1)c1ccc(Nc2nc(-c3ccncc3)cs2)cc1 [SR-29448] | < 6.30 | –
Cc1nc(C)c(-c2csc(Nc3ccc(S(=O)(=O)Nc4ccc(F)cc4)cc3)n2)s1 [SR-29449] | < 6.30 | –
NS(=O)(=O)c1ccc(Nc2nc(-c3ccc(S(N)(=O)=O)cc3)cs2)cc1 [SR-29450] | 7.82 | –
CNS(=O)(=O)c1ccc(Nc2nc(-c3ccc(S(N)(=O)=O)cc3)cs2)cc1 [SR-29451] | 7.70 | –
CC(O)c1cccc(Nc2nnc(Cc3ccncc3)c3ccccc23)c1 (stereo not drawn) [SR-29684] | 8.70 | –
c1ccc2c(NCC3CCCO3)nnc(Cc3ccncc3)c2c1 (stereo not drawn) [SR-30004] | 7.35 | –
c1coc(CNc2nnc(Cc3ccncc3)c3ccccc23)c1 [SR-30005] | 7.82 | –
c1ccc2[nH]c(CNc3nnc(Cc4ccncc4)c4ccccc34)cc2c1 [SR-30006] | 7.52 | –
c1ccc2c(NCC3CCOCC3)nnc(Cc3ccncc3)c2c1 [SR-30008] | 8.10 | –
c1ccc2oc(Nc3nnc(Cc4ccncc4)c4ccccc34)nc2c1 [SR-30010] | 8.70 | –
c1ccc2oc(CNc3nnc(Cc4ccncc4)c4ccccc34)cc2c1 [SR-30011] | 8.70 | –
CC1(c2cccc(Nc3nnc(Cc4ccncc4)c4ccccc34)c2)OCCO1 [SR-30012] | 8.70 | –
C/C(=N\O)c1cccc(Nc2nnc(Cc3ccncc3)c3ccccc23)c1 [SR-30013] | 8.70 | –
CO/N=C(\C)c1cccc(Nc2nnc(Cc3ccncc3)c3ccccc23)c1 [SR-30014] | 8.70 | –
c1ccc2c(c1)CC(CNc1nnc(Cc3ccncc3)c3ccccc13)O2 (stereo not drawn) [SR-30024] | 8.10 | –
COc1cc2nccc(Oc3ccc(NC(=O)NC4CC4)c(Cl)c3)c2cc1C(N)=O [lenvatinib, reference compound] | – | neuroprotective activity in the TPrP assay [1]: entirely lacked neuroprotective activity
CNC(=O)c1cc(Oc2ccc(NC(=O)Nc3ccc(Cl)c(C(F)(F)F)c3)cc2)ccn1 [sorafenib, reference compound] | – | neuroprotective activity in the TPrP assay [1]: entirely lacked neuroprotective activity
COc1cc2nccc(Oc3ccc(NC(=O)Nc4cc(C)on4)c(Cl)c3)c2cc1OC [tivozanib, reference compound] | – | neuroprotective activity in the TPrP assay [1]: entirely lacked neuroprotective activity
